Values quoted from earlier work as cited in patent US20240350654A1, “NANOCARRIERS FOR TARGETED DELIVERY OF THERAPEUTICS” (Northwestern University, priority 2023, published 2024).

Settings: humans, approximation

For `CO[C@@H]1[C@H](N(C)C(=O)c2ccccc2)C[C@H]2O[C@]1(C)n1c3ccccc3c3c4c(c5c6ccccc6n2c5c31)C(=O)NC4` [midostaurin], the “total peak blood concentration of midostaurin and its active metabolites” value is listed as 2.16 µg/mL.
